Data: patent US7879795B2, “Enhancement of tigecycline potency using efflux pump inhibitors” (Mpex Pharmaceuticals, Inc., priority 2004, dated 2011)

Experiments:
[1] = Tissue levels in rat six-hour after 8.4 mg/kg IV bolus; format: in vivo; settings: rat kidney, liver and lung; 8.4 mg/kg IV bolus; in words
Protocol: Tissue levels of compounds 1, 2, 3 and 4 were evaluated in kidney, liver and lung six-hour after 8.4 mg/kg IV bolus administration. FIG. 13 depicts the levels as a function of time.
Compound 67, which is the expected metabolite of proteolytic intracellular degradation of compound 3, was detected in rat tissues after IV infusion, confirming the tissue-specific degradation of compound 3 (Tables 9A, B).

[2] = In vitro stability in rat serum and tissue homogenates (LC/MS/MS); format: in vitro ADME; settings: for stability in tissue homogenates at pH lowered to about 6 versus no pH change: rat kidney, liver, lung homogenates, acetic acid
[3] = system: P. aeruginosa, PAM1723, overexpressing the MexAB-OprM efflux pump; experiment: Levofloxacin potentiation checkerboard assay (broth microdilution); format: cell-based; settings: for MPC8: EPI concentration necessary to increase susceptibility to levofloxacin eight-fold
Summary of the method: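 Checkerboard of levofloxacin against efflux pump inhibitors (EPIs) in Mueller-Hinton broth (MHB), with the EPIs titrated down the rows. Plates were incubated 20 h at 35 °C; growth was read at 650 nm and also scored visually.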

Stability in human serum = format: in vitro ADME; settings: in words
Protocol: FIG. 9 compares the stability of compounds 1 and 3 in human serum as a function of time. Both compound 1 and compound 3 were stable after 18 hours of incubation with human serum.

[4] = system: P. aeruginosa strain PAM1032 overexpressing MexAB-OprM efflux pump; experiment: Mouse sepsis model of PA infection (ED50 of levofloxacin); format: in vivo
Protocol: P. aeruginosa strain PAM1032 overexpressing MexAB-OprM efflux pump was grown overnight in Mueller-Hinton Broth (MHB). The next day, the overnight culture was diluted in fresh MHB and was allowed to re-grow to ˜10^8 CFU/mL (OD600˜0.3). The culture was spun down, washed twice with phosphate buffered saline (PBS) and re-suspend in PBS to ˜1.2×10^7 CFU/mL (OD=0.12). Next this culture was mixed 1:1 with 14% hog-gastric mucin in PBS to give a final inoculum of […].
The effect of the EPI at 50 mg/kg was determined according to the following experimental design: […]

[5] = system: P. aeruginosa overexpressing (strain PAM1723) or lacking (PAM1626) efflux pumps; experiment: Stability in P. aeruginosa cultures; format: in vitro ADME; settings: 50 μg/ml, PAM1723 and PAM1626
Protocol: Overnight cultures of two different strains of P. aeruginosa overexpressing (strain PAM1723) or lacking (PAM1626) efflux pumps were incubated with compounds 1 or 3 at 50 μg/ml for various times. Compounds were extracted using 4% TCA and analysed by LC/MC/MC.

[6] = system: strain PAM1723 of P. aeruginosa; format: in vitro ADME; settings: in words
Protocol: Stability of compounds was also evaluated using a bioassay. The test compound at 320 μg/ml was treated with rabbit kidney supernatant for 0, 0.5, 1 and 2 hours.

[7] = system: Enterobacter aerogenes 19; experiment: Antibiotic MIC with fixed concentration of compound 21, Enterobacter aerogenes 19; format: cell-based
[8] = system: Strain S41, a clinical isolate; experiment: microbe, parasite or virus in culture; format: cell-based, P. aeruginosa; settings: strain S41
[9] = EPI 0 μg/ml (levofloxacin alone)

SMILES	tissue levels at 6 hours after IV injection [1]	stability in supernatant of rat kidney tissue homogenates ([2]; in words)	stability in tissue homogenates at pH lowered to about 6 versus no pH change [2]	Antibiotic (levofloxacin) MIC in the presence of EPI [3, 9] [µg/mL]	Antibiotic (levofloxacin) MIC in the presence of EPI ([3]; EPI 1.25 μg/ml) [µg/mL]	Antibiotic (levofloxacin) MIC in the presence of EPI ([3]; EPI 5 μg/ml) [µg/mL]	Antibiotic (levofloxacin) MIC in the presence of EPI ([3]; EPI 10 μg/ml) [µg/mL]	Antibiotic (levofloxacin) MIC in the presence of EPI ([3]; EPI 20 μg/ml) [µg/mL]	Antibiotic (levofloxacin) MIC in the presence of EPI ([3]; EPI 40 μg/ml) [µg/mL]	Antibiotic (levofloxacin) MIC in the presence of EPI ([3]; EPI 80 μg/ml) [µg/mL]	Antibiotic (levofloxacin) MIC in the presence of EPI ([3]; EPI […]) [µg/mL]	MPC8 [3] [µg/mL]	stability after 18 hours of incubation with human serum (Stability in human serum)	stability in cultures of tested bacterial strains [5]	further results
NCCC[C@@H](N)C(=O)N[C@H](CCc1ccccc1)C(=O)Nc1cnc2ccccc2c1 [Compound 1, 2-(R),5-Diamino-pentanoic acid [3-phenyl-1-(R)-(quinolin-3-ylcarbamoyl)-propyl]-amide]	relatively high levels	neither compound 1 nor compound 4 show any instability	essentially unchanged	2	2	0.5	0.06	0.03	0.015	0.008	1	10	stable	stable	compound left after 16 hrs of incubation ([2]; all of the tissues tested (rat serum, tissue homogenates), 37° C., 2 μg/ml): 70-80%; stability in all of the tissues tested ([2]; rat, in words): highly stable; decrease of ED50 of levofloxacin ([4]; EPI at 50 mg/kg IP, survival at 24 hours): 4 fold
NCCC[C@H](N)C(=O)N[C@H](CCc1ccccc1)C(=O)Nc1cnc2ccccc2c1 [Compound 3, 2-(S),5-Diamino-pentanoic acid [3-phenyl-1-(R)-(quinolin-3-ylcarbamoyl)-propyl]-amide]	very low level	supernatant instability was selective to compound 3	degraded faster	2	2	0.25	0.03	0.015	0.015	0.015	1	10	stable	stable	stability in supernatant versus pellet of kidney tissue homogenates ([2]; after 5 min. centrifugation): Greater instability; stability in rat serum ([2]; in words): at least as stable as 1; stability in kidney and liver ([2]; rat tissue homogenates, in words): more unstable than 1; change of EPI activity after treatment with supernatant of rabbit kidney homogenate [6]: time-dependent reduction of the EPI activity; decrease in ED50 of levofloxacin ([4]; increasing concentrations of EPI, dose-dependent): up to 4 fold
NCCC[C@H](N)C(=O)N[C@H](Cc1ccc(C(F)(F)F)cc1)C(=O)Nc1cnc2ccccc2c1 [Compound 21, 2-(S),5-Diamino-pentanoic acid [1-(R)-(quinolin-3-ylcarbamoyl)-2-(4-trifluoromethyl-phenyl)-ethyl]amide]	–	–	–	–	–	–	–	–	–	–	–	–	–	–	Azi + EPI (MIC) ([7]; azithromycin MIC with compound 21): 0.5; Levo + EPI at […] (MIC) ([7]; levofloxacin MIC with compound 21 at […]): 16; Tig + EPI at […] (MIC) ([7]; tigecycline MIC with compound 21 at […]): 0.25; Tigecycline MIC with Compound 21 at 5 μg/ml [8]: 0.125 µg/mL; Mutation Frequency on Tigecycline at 4 μg/ml with Compound 21 at 10 μg/ml ([8]; 4× MIC): <1.5 × 10^−10; reduction of the frequency of emergence of tigecycline resistance ([8]; compound 21 at 10 μg/ml): at least three orders of magnitude
